These results are taken from doi:10.1101/208439v1 (biorxiv, 2017).

In one assay the target is T1, DOT1L (Homo sapiens, UniProt Q8TEK3).
T1 construct: residues 1-416, N-terminal GST fusion, E. coli
In words: HotSpot [3H]SAM filter-binding methyltransferase assay. It counts as biochemical.

Another assay addresses T2, NSD2 (Homo sapiens, UniProt O96028, T1150A).
T2 construct: full length (residues 2-1365), N-terminal His tag, insect cell/baculovirus
T2 sequence (O96028 2-1365 T1150A): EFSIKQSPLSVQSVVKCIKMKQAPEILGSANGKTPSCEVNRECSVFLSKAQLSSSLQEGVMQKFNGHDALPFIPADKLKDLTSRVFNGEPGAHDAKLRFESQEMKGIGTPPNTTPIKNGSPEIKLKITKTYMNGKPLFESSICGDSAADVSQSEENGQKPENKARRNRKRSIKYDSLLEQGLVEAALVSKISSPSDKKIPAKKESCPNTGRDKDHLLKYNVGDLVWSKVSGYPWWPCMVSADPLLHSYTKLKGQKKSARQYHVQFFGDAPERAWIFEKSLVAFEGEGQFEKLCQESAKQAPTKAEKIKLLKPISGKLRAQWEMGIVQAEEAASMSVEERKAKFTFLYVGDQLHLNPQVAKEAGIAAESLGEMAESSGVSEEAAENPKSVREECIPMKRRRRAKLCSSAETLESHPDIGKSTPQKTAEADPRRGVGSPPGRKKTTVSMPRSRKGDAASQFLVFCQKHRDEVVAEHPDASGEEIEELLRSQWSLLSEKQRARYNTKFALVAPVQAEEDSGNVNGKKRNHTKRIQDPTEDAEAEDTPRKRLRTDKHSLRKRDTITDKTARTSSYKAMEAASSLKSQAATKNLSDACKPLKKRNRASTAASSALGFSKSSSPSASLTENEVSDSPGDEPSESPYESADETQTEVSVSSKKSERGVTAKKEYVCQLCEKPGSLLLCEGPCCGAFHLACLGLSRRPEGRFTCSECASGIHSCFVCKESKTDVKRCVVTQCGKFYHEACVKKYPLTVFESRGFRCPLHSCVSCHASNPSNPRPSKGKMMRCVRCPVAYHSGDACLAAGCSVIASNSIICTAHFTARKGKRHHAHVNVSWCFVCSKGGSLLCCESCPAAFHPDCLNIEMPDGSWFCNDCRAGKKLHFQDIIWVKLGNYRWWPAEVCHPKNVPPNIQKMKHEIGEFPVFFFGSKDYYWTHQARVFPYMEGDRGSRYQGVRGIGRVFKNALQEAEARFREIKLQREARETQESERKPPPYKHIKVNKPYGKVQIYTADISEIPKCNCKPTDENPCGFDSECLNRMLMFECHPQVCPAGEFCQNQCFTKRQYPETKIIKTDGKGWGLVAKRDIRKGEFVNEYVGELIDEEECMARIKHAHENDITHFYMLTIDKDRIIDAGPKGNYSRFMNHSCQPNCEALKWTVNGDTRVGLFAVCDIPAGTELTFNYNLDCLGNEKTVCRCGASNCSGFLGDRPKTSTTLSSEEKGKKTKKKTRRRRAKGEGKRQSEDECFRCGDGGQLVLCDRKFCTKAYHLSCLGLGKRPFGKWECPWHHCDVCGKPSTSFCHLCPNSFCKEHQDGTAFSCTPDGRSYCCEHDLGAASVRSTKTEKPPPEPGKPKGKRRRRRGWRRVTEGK
Kind of assay: biochemical. Details: MTase-Glo bioluminescence methyltransferase assay, full-length NSD2 with HeLa nucleosomes. The settings on record: read-out: MTase-Glo IC50. The source says: A major challenge in screening for small molecule inhibitors is that native NSD2 requires nucleosomes as a substrate ([17]). […] Chemical libraries were screened in 3-dose point quantitative high-throughput screening (qHTS) format ([43]) with the Methyltransferase-Glo (MTase-Glo™) methyltransferase bioluminescence assay ([44]). A number of counter and orthogonal assays were also developed to characterize the hits from the primary screen. Confirmed hits were validated with a radiolabeled SAM substrate-based NSD2 activity assay and further interrogated with binding studies by surface plasmon resonance (SPR), methyltransferase profiling, and activity assessments in U-2 OS cells. […] Overall the reaction conditions were very similar.

In assay [1] the target is T3, NSD2 SET domain (Homo sapiens, UniProt O96028).
T3 construct: SET domain, residues 934-1241, N-terminal His tag, E. coli
T3 sequence (O96028 934-1241): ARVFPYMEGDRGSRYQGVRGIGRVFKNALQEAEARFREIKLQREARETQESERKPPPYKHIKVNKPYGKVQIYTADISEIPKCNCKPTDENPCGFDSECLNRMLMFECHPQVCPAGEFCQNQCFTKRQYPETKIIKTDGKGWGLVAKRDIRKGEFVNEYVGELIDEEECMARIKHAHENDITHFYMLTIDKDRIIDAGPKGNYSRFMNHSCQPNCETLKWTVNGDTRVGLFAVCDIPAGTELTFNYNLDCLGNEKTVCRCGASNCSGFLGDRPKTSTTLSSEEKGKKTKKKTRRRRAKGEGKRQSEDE
In words: SPR Biacore 8K, single-cycle kinetics, […] model. In kind it is binding.

The next assay addresses T4, EZH1 Complex (Homo sapiens, UniProt Q92800).
T4 construct: five-member complex, Flag-EED, other subunits His-tagged, insect cells; with Zinc finger protein AEBP2; Polycomb protein EED; Polycomb protein SUZ12
In words: HotSpot [3H]SAM filter-binding methyltransferase assay. In kind it is biochemical.

The target of assay [2] is T3, NSD2 SET domain. Kind of assay: biochemical. Further details: Surface plasmon resonance binding to NSD2 SET domain. The settings on record: binder. The method, then: To support an on-target mechanism of action for the five inhibitors, surface plasmon resonance (SPR) was used to determine whether each inhibitor interacts with the catalytic SET domain of NSD2. […] Chaetocin bound the SET domain with an apparent dissociation constant of 20 nM. Additionally, the data indicated super-stoichiometric binding, which might be due to a binding ratio higher than 1:1 that is consistent with chaetocin’s two disulfide moieties forming adducts with the NSD2 protein, or compound aggregation (data not shown) ([56]).

A further assay concerns the target PRMT5 (Homo sapiens, UniProt O14744). Kind of assay: biochemical.

Read-outs that look alike come from different tables or passages of the source.

Sequence of PRMT5 (O14744 whole entry): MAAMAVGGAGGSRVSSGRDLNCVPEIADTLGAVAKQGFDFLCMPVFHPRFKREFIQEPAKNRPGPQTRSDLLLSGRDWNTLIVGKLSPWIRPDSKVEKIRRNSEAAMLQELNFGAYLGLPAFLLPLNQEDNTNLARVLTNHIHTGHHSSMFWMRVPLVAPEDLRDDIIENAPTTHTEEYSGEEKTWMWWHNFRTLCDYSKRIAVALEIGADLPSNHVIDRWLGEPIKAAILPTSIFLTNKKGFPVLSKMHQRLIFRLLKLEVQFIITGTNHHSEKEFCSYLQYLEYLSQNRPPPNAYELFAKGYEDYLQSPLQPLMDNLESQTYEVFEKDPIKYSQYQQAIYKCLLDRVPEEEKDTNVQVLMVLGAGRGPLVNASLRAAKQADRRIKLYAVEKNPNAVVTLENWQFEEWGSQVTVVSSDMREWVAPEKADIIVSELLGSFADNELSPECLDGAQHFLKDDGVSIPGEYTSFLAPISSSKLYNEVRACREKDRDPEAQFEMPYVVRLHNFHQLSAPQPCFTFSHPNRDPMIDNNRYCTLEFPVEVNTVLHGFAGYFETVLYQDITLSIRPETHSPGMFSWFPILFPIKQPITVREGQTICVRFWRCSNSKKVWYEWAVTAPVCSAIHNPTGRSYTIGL
T4 sequence (Q92800 2-747): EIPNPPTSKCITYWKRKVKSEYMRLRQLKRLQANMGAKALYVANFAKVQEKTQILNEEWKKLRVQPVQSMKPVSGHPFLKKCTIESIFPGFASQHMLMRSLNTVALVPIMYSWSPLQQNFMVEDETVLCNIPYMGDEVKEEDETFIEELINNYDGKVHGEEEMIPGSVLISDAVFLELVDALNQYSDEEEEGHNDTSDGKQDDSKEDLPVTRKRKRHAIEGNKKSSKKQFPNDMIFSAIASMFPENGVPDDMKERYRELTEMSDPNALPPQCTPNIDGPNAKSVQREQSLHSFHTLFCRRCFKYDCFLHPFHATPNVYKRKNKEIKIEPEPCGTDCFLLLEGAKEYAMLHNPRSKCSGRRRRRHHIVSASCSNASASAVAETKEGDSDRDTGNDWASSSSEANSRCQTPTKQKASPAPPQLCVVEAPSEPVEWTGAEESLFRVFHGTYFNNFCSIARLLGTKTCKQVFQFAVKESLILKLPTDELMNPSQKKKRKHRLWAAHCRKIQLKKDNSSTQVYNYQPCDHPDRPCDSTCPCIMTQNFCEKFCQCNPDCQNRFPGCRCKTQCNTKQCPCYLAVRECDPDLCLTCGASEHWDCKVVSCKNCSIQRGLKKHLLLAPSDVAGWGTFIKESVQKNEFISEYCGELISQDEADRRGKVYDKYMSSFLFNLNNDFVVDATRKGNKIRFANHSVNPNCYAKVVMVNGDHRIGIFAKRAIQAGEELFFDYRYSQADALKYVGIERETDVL
T4 sequence (O75530 2-441 partner): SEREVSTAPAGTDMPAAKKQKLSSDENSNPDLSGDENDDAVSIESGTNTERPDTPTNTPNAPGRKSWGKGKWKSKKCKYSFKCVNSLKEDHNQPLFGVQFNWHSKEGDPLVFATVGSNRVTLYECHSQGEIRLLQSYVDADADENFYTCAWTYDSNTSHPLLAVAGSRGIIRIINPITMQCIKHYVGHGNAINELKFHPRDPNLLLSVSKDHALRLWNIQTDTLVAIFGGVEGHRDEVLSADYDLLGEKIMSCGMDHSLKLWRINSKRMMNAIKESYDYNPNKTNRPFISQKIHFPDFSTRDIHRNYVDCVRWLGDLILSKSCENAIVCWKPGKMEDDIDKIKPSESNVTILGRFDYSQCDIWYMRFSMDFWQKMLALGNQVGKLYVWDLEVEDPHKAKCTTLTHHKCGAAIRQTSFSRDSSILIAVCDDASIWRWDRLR
T4 sequence (Q15022 2-739 partner): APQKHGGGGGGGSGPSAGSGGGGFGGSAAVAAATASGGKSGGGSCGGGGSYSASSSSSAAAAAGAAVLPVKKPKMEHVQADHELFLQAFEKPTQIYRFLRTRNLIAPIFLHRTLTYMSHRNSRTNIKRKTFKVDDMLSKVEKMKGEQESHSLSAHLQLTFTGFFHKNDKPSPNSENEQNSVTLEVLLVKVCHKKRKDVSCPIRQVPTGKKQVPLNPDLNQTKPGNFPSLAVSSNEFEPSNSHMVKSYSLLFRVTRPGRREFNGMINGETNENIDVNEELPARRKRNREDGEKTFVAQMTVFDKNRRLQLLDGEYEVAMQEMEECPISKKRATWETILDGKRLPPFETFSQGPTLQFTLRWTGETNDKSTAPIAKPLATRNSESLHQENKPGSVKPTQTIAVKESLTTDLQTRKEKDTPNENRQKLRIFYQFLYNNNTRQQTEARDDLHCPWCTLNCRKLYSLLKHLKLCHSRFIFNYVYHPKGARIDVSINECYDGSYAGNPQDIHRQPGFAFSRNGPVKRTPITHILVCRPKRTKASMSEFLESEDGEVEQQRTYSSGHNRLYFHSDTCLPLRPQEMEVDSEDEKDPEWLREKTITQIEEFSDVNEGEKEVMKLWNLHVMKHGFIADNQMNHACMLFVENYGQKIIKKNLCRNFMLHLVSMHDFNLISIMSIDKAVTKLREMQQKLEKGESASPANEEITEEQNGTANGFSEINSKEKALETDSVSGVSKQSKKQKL
T4 sequence (Q09028 2-425 partner): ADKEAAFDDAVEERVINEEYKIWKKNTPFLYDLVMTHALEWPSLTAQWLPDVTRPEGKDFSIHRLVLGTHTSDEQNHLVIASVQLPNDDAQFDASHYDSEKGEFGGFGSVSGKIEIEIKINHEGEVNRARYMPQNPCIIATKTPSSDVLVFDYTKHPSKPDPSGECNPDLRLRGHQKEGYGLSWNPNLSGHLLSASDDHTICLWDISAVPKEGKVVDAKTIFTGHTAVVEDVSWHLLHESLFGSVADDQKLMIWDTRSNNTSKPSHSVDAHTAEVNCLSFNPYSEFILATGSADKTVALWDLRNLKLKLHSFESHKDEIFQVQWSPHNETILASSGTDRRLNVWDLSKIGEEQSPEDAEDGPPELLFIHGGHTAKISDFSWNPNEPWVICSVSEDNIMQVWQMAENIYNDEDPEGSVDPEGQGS
T4 sequence (Q6ZN18 2-517 partner): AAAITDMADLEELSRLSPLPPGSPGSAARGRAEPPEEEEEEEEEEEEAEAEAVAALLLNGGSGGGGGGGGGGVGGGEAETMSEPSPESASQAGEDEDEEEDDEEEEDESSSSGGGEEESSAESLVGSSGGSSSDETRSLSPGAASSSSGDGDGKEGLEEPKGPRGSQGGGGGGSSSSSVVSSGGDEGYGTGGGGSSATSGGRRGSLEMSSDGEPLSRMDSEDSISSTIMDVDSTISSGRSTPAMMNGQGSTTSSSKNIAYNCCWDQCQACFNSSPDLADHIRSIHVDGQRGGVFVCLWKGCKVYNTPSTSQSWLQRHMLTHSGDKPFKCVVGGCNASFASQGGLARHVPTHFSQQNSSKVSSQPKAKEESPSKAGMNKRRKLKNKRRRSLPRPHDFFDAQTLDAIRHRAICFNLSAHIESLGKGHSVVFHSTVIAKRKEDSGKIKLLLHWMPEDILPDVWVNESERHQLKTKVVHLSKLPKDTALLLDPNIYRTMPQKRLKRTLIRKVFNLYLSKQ
T1 sequence (Q8TEK3 1-416): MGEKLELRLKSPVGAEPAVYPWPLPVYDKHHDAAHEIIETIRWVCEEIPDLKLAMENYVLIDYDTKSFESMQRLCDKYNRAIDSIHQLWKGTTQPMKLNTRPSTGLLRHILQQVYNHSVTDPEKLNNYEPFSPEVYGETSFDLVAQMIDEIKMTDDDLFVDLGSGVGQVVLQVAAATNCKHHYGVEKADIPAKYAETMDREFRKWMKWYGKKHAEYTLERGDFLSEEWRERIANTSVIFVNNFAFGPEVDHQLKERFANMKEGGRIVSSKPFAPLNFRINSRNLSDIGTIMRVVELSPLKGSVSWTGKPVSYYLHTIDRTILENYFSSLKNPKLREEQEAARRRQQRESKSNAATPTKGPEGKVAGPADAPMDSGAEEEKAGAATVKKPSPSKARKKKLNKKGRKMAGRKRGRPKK

With `CC1(C)CCC(CN2CCN(c3ccc(C(=O)NS(=O)(=O)c4ccc(NCC5CCOCC5)c([N+](=O)[O-])c4)c(Oc4cnc5[nH]ccc5c4)c3)CC2)=C(c2ccc(Cl)cc2)C1` [ABT-199], the IC50 at DOT1L was 2 µM; at NSD2, 15 µM; on EZH1 Complex, 66 µM. For the same compound, the Kd on NSD2 SET domain [1] amounted to 8.3 µM. Besides, the “koff” value at NSD2 SET domain [2] is 0.0364 s⁻¹. Further, the “kon” value at NSD2 SET domain [2] was determined as 4390 M⁻¹ s⁻¹.
With `O=C1C(Cl)=C(NCCN2CCOCC2)C(=O)c2ncccc21` [DA3003-1], the IC50 came out at 0.65 µM on PRMT5 (read-out: DA3003-1 IC50, inhibitor) and 2.9 µM at NSD2 (inhibitor). The Kd at NSD2 SET domain [2] turned out to be 0.37 µM.
Regarding `COc1cccc(-n2nc(C(=O)O)cc2-c2ccc(C3CCCCC3)c(Cl)c2)c1` [TC LPA5 4], the IC50 on PRMT5 amounted to 17 µM; at DOT1L (nucleosomes, […] SAM, pH […] MgCl2, […] DTT, […] °C, single experiment), 8.2 µM; on EZH1 Complex (core histone, […] SAM, pH […] EDTA, […] DTT, […] °C, single experiment) it was 40 µM. At NSD2 SET domain [1] (immobilized SET domain, pH […] °C, […] MgCl2, […] TCEP, […] DMSO), this compound returned a Kd of 8.4 µM.
